For data set [1], the system named is A549. The data set is described as follows: Cytotoxicity against human A549 cells at 10 uM by SRB assay. Format: functional, cell-based.
The test system of another data set is Staphylococcus aureus. Kind of data set: Antibacterial activity against Staphylococcus aureus after 24 hrs by broth macrodilution method. In kind it is functional.
The test system of data set [2] is HeLa. The data set is described as follows: Cytotoxicity against human HeLa cells at 10 uM by SRB assay. In kind it is functional, cell-based. (In general: The SRB assay estimates cell density from bound dye.)
A short description of data set [3]: Cytotoxicity against human Chang cells by SRB assay. Format: cell-based.
The test system of data set [4] is HepG2. Kind of data set: Cytotoxicity against human HepG2 cells at 10 uM by SRB assay. In kind it is functional, cell-based.
Data set [5] concerns the target T1, Alpha glucosidase (Homo sapiens, UniProt O43451+P10253+P14410+Q2M2H8). Kind of data set: Inhibition of human alpha-glucosidase expressed in Saccharomyces cerevisiae using p-nitrophenyl-alpha-D-glucopyranoside as substrate after 15 mins.
For data set [6], the system named is HeLa. The data set is described as follows: Cytotoxicity against human HeLa cells by SRB assay. In kind it is functional, cell-based.
For data set [7], the target named is T1, Alpha glucosidase. The data set is described as follows: Non-competitive inhibition of human alpha-glucosidase expressed in Saccharomyces cerevisiae using p-nitrophenyl-alpha-D-glucopyranoside as substrate after 15 mins by Lineweaver-Burk plot analysis.
Data set [8] concerns HeLa. The data set is described as follows: Cytotoxicity against human HeLa cells after 3 days by hematoxylin-eosin staining-based assay. The settings on record: 72 h, read-out: ID50 (the source's name). In kind it is functional.
Data set [9] can be described thus: Cytotoxicity against human Chang cells at 10 uM by SRB assay. Format: cell-based.
The next data set has as its system MDA-MB-435. The data set is described as follows: Cytotoxicity against human MDA-MB-435 cells. In kind it is functional, cell-based.
For data set [10], the system named is A549. Kind of data set: Cytotoxicity against human A549 cells by SRB assay. Format: functional, cell-based.
The test system of data set [11] is HepG2. Kind of data set: Cytotoxicity against human HepG2 cells by SRB assay. Format: functional, cell-based.
The subject of the next data set is alpha-glucosidase. The data set is described as follows: Therapeutic index, ratio of CC50 for human Chang cells to IC50 for human alpha-glucosidase expressed in Saccharomyces cerevisiae. Format: toxicity. The settings on record: read-out: Ratio CC50/IC50.
For data set [12], the system named is HeLa. The data set is described as follows: Cell cycle arrest in human HeLa cells assessed as accumulation of cells at G0/G1 phase at 10 uM after 36 hrs by flow cytometric analysis (reference value: 66.64%). Format: functional.
The subject of data set [13] is HeLa. The data set is described as follows: Cell cycle arrest in human HeLa cells assessed as accumulation of cells at G0/G1 phase at 2.5 uM after 36 hrs by flow cytometric analysis (reference value: 66.64%). In kind it is functional.
Data set [14] has as its system HeLa. The data set is described as follows: Cell cycle arrest in human HeLa cells assessed as accumulation of cells at G2/M phase at 1.25 uM after 36 hrs by flow cytometric analysis (reference value: 9.92%). In kind it is functional. For orientation: In flow cytometry, cells or beads pass a laser one at a time.
The test system of data set [15] is HeLa. The data set is described as follows: Cell cycle arrest in human HeLa cells assessed as accumulation of cells at G0/G1 phase at 1.25 uM after 36 hrs by flow cytometric analysis (reference value: 66.64%). In kind it is functional.
The test system of data set [16] is HeLa. Kind of data set: Cell cycle arrest in human HeLa cells assessed as accumulation of cells at S phase at 1.25 uM after 36 hrs by flow cytometric analysis (reference value: 23.44%). In kind it is functional.
Data set [17] deals with HeLa. The data set is described as follows: Cell cycle arrest in human HeLa cells assessed as accumulation of cells at S phase at 5 uM after 36 hrs by flow cytometric analysis (reference value: 23.44%). In kind it is functional.
The subject of data set [18] is HeLa. The data set is described as follows: Cell cycle arrest in human HeLa cells assessed as accumulation of cells at G2/M phase at 2.5 uM after 36 hrs by flow cytometric analysis (reference value: 9.92%). In kind it is functional.
The subject of data set [19] is HeLa. The data set is described as follows: Cell cycle arrest in human HeLa cells assessed as accumulation of cells at G2/M phase at 5 uM after 36 hrs by flow cytometric analysis (reference value: 9.92%). In kind it is functional.
Data set [20] concerns HeLa. Kind of data set: Cell cycle arrest in human HeLa cells assessed as accumulation of cells at G2/M phase at 10 uM after 36 hrs by flow cytometric analysis (reference value: 9.92%). Format: functional.
For data set [21], the system named is HeLa. Kind of data set: Cell cycle arrest in human HeLa cells assessed as accumulation of cells at S phase at 10 uM after 36 hrs by flow cytometric analysis (reference value: 23.44%). In kind it is functional.
The subject of data set [22] is HeLa. Kind of data set: Cell cycle arrest in human HeLa cells assessed as accumulation of cells at S phase at 2.5 uM after 36 hrs by flow cytometric analysis (reference value: 23.44%). Format: functional.
Data set [23] concerns HeLa. Kind of data set: Cell cycle arrest in human HeLa cells assessed as accumulation of cells at G0/G1 phase at 5 uM after 36 hrs by flow cytometric analysis (reference value: 66.64%). In kind it is functional.

In brackets after ≈: the same amount, converted by molar mass. Activity calls are given as the source filed them. No cut-off for these calls is given here.

For `COc1cc(-c2ccc(O)cc2)c(OC)c(O)c1-c1ccc(OCc2ccccc2)cc1`, the outcome in the data set with A549 [1], in the data set on HeLa [2] and in the data set on HepG2 [4] was inactive. Further, in the data set on Staphylococcus aureus, the minimum inhibitory concentration (MIC) was determined as 6.25 µM (≈ 2.68 µg/mL). The molecule further yielded a cytotoxic concentration (CC50) in data set [3] of 23.1 µM. Besides, the IC50 against Alpha glucosidase [5] is 12.5 µM.
As for `CCCOc1c(OC)c(-c2ccc(O)cc2)cc(OC)c1-c1ccc(O)cc1`, the outcome in the data set with A549 [1], in the data set with HeLa [2] and in the data set with HepG2 [4] was inactive. Besides, 6.25 µM (≈ 2.38 µg/mL) was the least that counted as inhibitory in the data set on Staphylococcus aureus (MIC). In addition, in data set [3], the cytotoxic concentration (CC50) is 14.5 µM. The molecule also displayed an IC50 against Alpha glucosidase [5] of 19.3 µM.
On to `COc1cc(-c2ccc(O)cc2)c(OC)c(O)c1-c1ccc(O)cc1` [TERPHENYLLIN], for which the result in the data set with A549 [1] and in the data set on HepG2 [4] was inactive. Further, the IC50 with HeLa [6] was found to be 15.1 µM; with HeLa [8], 10 µg/mL (≈ 29.6 µM); at Alpha glucosidase [5], 4.79 µM. The molecule further came in with a 50% cytotoxic concentration (CC50) in data set [3] of 6.95 µM. The molecule further displayed a Ki on Alpha glucosidase [7] of 1.5 µM.
`COc1cc(-c2ccc(O)cc2)c(OC)c(OCc2ccccc2)c1-c1ccc(O)cc1`: the outcome in the data set on A549 [1], in the data set on HeLa [2] and with HepG2 [4] was inactive. Besides, the MIC in the data set on Staphylococcus aureus was found to be 6.25 µM (≈ 2.68 µg/mL). Further, in data set [3], the CC50 amounted to 17.1 µM. In addition, the IC50 against Alpha glucosidase [5] came out at 19.1 µM.
For `COc1c(Br)c(-c2ccc(O)cc2)c(OC)c(O)c1-c1ccc(O)cc1`, the outcome in the data set on A549 [1], in the data set on HeLa [2] and with HepG2 [4] was inactive. Further, the MIC with Staphylococcus aureus is 1.56 µM (≈ 0.651 µg/mL). The Activity entry in data set [9] is reported as “Non-Toxic”. The molecule also showed an IC50 against Alpha glucosidase [5] of 7.14 µM.
Take `COc1cc(-c2ccc(O)c(O)c2)c(OC)c(O)c1-c1ccc(O)c(O)c1`: the result in the data set with A549 [1], with HeLa [2] and in the data set on HepG2 [4] was inactive. For the same molecule, in [9], the Activity result is recorded as “Non-Toxic”. For the same molecule, the IC50 in the data set on MDA-MB-435 is under 20 µM; against Alpha glucosidase [5], 14 µM.
With `C=CCOc1ccc(-c2c(OC)cc(-c3ccc(O)cc3)c(OC)c2O)cc1`, it took 6.25 µM (≈ 2.37 µg/mL) to inhibit growth against Staphylococcus aureus (MIC). In addition, the IC50 worked out at 1.02 µM in the data set on HeLa [6], 0.17 µM in the data set with A549 [10], 0.95 µM in the data set with HepG2 [11] and 32.2 µM on Alpha glucosidase [5]. Further, the half-maximal cytotoxic concentration (CC50) in [3] was 0.57 µM.
As for `CCCOc1ccc(-c2cc(OC)c(-c3ccc(O)cc3)c(O)c2OC)cc1`, the result in the data set with A549 [1], in the data set on HeLa [2] and in the data set on HepG2 [4] was inactive. Besides, the selectivity ratio in the data set with alpha-glucosidase amounted to 10. The molecule also had a CC50 in data set [3] of 98.5 µM. Further, the IC50 on Alpha glucosidase [5] was 10 µM.
`COc1cc(-c2ccc(O)cc2)c(O)c(O)c1-c1ccc(O)cc1`: the outcome in the data set on A549 [1], in the data set on HeLa [2] and in the data set on HepG2 [4] was inactive. Also, the selectivity ratio in the data set with alpha-glucosidase amounted to 17. Moreover, in data set [3], it took 224 µM to reach half-maximal cytotoxicity (CC50). In addition, the IC50 on Alpha glucosidase [5] is 13.2 µM.
On to `COc1cc(-c2ccc(O)cc2)c(OC)c(OCCBr)c1-c1ccc(O)cc1`, for which the outcome in the data set with A549 [1], with HeLa [2] and with HepG2 [4] was inactive. This molecule also returned an MIC with Staphylococcus aureus of 6.25 µM (≈ 2.78 µg/mL). This molecule registered a CC50 in data set [3] of 39.1 µM. The IC50 at Alpha glucosidase [5] turned out to be 18.8 µM.
Consider `COc1cc(-c2ccccc2)c(OC)c(O)c1-c1ccc(O)cc1`, for which the outcome in the data set on A549 [1], in the data set with HeLa [2] and in the data set with HepG2 [4] was inactive. For the same molecule, the Activity entry in data set [9] is reported as “Non-Toxic”. Also, the figures for the IC50 in the data set on HeLa [8] and against Alpha glucosidase [5] were 32 µg/mL (≈ 99.3 µM) and 108.2 µM, respectively.
For the molecule `COc1cc(-c2ccc(O)cc2)c(OC)c(OCC=C(C)C)c1-c1ccc(O)cc1`, the result with A549 [1], with HeLa [2] and in the data set on HepG2 [4] was inactive. Also, inhibition of growth in the data set on Staphylococcus aureus (MIC) required 6.25 µM (≈ 2.54 µg/mL). The molecule also displayed a CC50 in [3] of 15.9 µM. The molecule also came in with an IC50 against Alpha glucosidase [5] of 23.4 µM.
Consider `COc1cc(-c2ccc(O)cc2)c(OC)c(O)c1-c1ccc(OCC=C(C)C)cc1`, for which the Activity with HeLa [12] was determined as 42.24%; in the data set on HeLa [13], 43.71%; in the data set on HeLa [14], 10.74%; with HeLa [15], 49.83%; in the data set with HeLa [16] it was 39.42%; in the data set with HeLa [17], 52.69%. Moreover, the Activity in the data set with HeLa [18] came to 10.54%; in the data set on HeLa [19], 4.33%; in the data set on HeLa [20], 0.55%; with HeLa [21], 57.2%; in the data set with HeLa [22] it was 45.75%; in the data set with HeLa [23], 42.98%. The IC50 with HeLa [6] was determined as 3.18 µM; with A549 [10] it was 0.31 µM; with HepG2 [11], 0.46 µM; on Alpha glucosidase [5], 17.5 µM. The molecule further yielded a CC50 in data set [3] of 0.31 µM.
For the molecule `COc1cc(-c2ccc(O)cc2)c(OC)c(OCCC(C)C)c1-c1ccc(O)cc1`, the result in the data set with A549 [1], in the data set on HeLa [2] and in the data set on HepG2 [4] was inactive. Also, the Activity result in data set [9] is listed as “Non-Toxic”. The Ki on Alpha glucosidase [7] was 3.45 µM. Also, the IC50 on Alpha glucosidase [5] came to 8.58 µM.
On to `COc1cc(-c2ccc(OCc3ccccc3)cc2)c(OC)c(O)c1-c1ccc(O)cc1`, for which the result in the data set with A549 [1], with HeLa [2] and in the data set with HepG2 [4] was inactive. The same molecule gave an MIC in the data set with Staphylococcus aureus of 6.25 µM (≈ 2.68 µg/mL). Besides, in [3], the CC50 was 39.1 µM. On Alpha glucosidase [5], this molecule showed an IC50 of 12.5 µM.
For the molecule `COc1cc(-c2ccc(O)cc2)c(OC)c(O)c1-c1ccc(O)c(O)c1`, the outcome in the data set on A549 [1], in the data set on HeLa [2] and in the data set on HepG2 [4] was inactive. The Activity result in [9] was “Non-Toxic”. Further, the figures for the IC50 with MDA-MB-435 and against Alpha glucosidase [5] were under 20 µM and 11.3 µM, respectively.
With `COc1cc(-c2ccc(OCC=C(C)C)cc2)c(OC)c(O)c1-c1ccc(O)cc1`, the result with A549 [1], with HeLa [2] and with HepG2 [4] was inactive. In addition, it took 6.25 µM (≈ 2.54 µg/mL) to inhibit growth with Staphylococcus aureus (MIC). For the same molecule, the CC50 in data set [3] is 26.2 µM. This molecule yielded an IC50 at Alpha glucosidase [5] of 20.1 µM.

What is called MIC is the least concentration at which growth counts as inhibited. The term CC50 denotes the concentration that lowers cell viability or growth by half. Higher therefore signals better tolerance by the cells. The Ki is the dissociation constant of the complex between target and ligand, obtained from inhibition or displacement. Read a high Ki as weaker binding.
